In patent US8153809B2, “Dihydropyridone ureas as P2X7 modulators” (Roche Palo Alto LLC, priority 2008, dated 2012) one finds pIC50 data, which are given here for 23 molecules.

This assay concerns the target T1, P2X7 (UniProt Q99572).
T1 sequence (Q99572 1-595): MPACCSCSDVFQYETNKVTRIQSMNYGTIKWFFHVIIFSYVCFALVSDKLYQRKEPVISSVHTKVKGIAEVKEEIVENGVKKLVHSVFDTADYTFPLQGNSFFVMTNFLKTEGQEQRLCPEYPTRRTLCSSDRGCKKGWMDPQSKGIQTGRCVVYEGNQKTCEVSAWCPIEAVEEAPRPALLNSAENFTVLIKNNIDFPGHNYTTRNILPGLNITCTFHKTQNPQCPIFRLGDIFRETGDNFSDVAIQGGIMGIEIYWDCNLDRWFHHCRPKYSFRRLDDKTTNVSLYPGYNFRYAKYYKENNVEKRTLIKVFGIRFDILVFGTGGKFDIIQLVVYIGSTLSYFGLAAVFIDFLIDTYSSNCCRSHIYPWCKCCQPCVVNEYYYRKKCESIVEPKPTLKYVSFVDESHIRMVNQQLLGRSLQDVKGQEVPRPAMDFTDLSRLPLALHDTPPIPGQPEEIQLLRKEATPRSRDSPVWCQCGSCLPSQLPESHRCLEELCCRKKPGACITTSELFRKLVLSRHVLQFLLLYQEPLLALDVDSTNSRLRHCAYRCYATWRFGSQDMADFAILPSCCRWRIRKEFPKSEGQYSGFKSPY
The experiment in a line: pIC50 values for P2X7 (Table 1). The format is cell-based. The method in brief: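 Fluo-3-loaded 1321N1 cells expressing human P2X7 or HEK293 cells expressing rat P2X7, preincubated 20 min at room temperature with antagonist in HBSS/Hepes/probenecid buffer with 2 mM CaCl2. BzATP agonist at 100 μM final (human) or 5 μM final (rat); fluorescence read 5 min, peak normalized to 5 μM ionomycin response.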
What is called pIC50 is −log10 of the IC50, conventionally taken in molar units. A low value points to a high IC50. For the molecule `COc1ccccc1NC(=O)N1C=CC(=O)CC1c1ccc(F)cc1` (centres unmarked) [Compound 105, 2-(4-Fluoro-phenyl)-4-oxo-3,4-dihydro-2H-pyridine-1-carboxylic acid (2-methoxy-phenyl)-amide], the pIC50 is on record as 5.91. `O=C1C=CN(C(=O)Nc2ccc3ncccc3c2Br)[C@H](c2ccc(F)cc2)C1` [Compound 106, (S)-2-(4-Fluoro-phenyl)-4-oxo-3,4-dihydro-2H-pyridine-1-carboxylic acid (5-bromo-quinolin-6-yl)-amide] displayed a pIC50 of 7.785. To `Cc1cc2nccnc2cc1NC(=O)N1C=CC(=O)C[C@H]1c1ccc(F)cc1` [Compound 107, (S)-2-(4-Fluoro-phenyl)-4-oxo-3,4-dihydro-2H-pyridine-1-carboxylic acid (7-methyl-quinoxalin-6-yl)-amide] belongs 7.095; to `Cc1cc(NC(=O)N2C=CC(=O)CC2c2ccc(F)cc2)n(C)n1` (centres unmarked) [Compound 108, 2-(4-Fluoro-phenyl)-4-oxo-3,4-dihydro-2H-pyridine-1-carboxylic acid (2,5-dimethyl-2H-pyrazol-3-yl)-amide], 6.043; to `COc1cccc(NC(=O)N2C=CC(=O)CC2c2ccc(F)cc2)c1C` (centres unmarked) [Compound 109, 2-(4-Fluoro-phenyl)-4-oxo-3,4-dihydro-2H-pyridine-1-carboxylic acid (3-methoxy-2-methyl-phenyl)-amide], 8.433. `COc1cccc(NC(=O)N2C=CC(=O)CC2c2ccc(F)cc2)c1OC` (centres unmarked) [Compound 110, 2-(4-Fluoro-phenyl)-4-oxo-3,4-dihydro-2H-pyridine-1-carboxylic acid (2,3-dimethoxy-phenyl)-amide]: the pIC50 amounted to 6.89. Regarding `Cc1cc(F)c(OCCO)cc1NC(=O)N1C=CC(=O)C[C@H]1c1ccc(F)cc1` [Compound 111, (S)-2-(4-Fluoro-phenyl)-4-oxo-3,4-dihydro-2H-pyridine-1-carboxylic acid [4-fluoro-5-(2-hydroxy-ethoxy)-2-methyl-phenyl]-amide], the pIC50 is recorded as 8.12. `O=C1C=CN(C(=O)Nc2cc3[nH]c(=O)[nH]c3cc2Br)C(c2ccc(F)cc2)C1` (centres unmarked) [Compound 112, 2-(4-Fluoro-phenyl)-4-oxo-3,4-dihydro-2H-pyridine-1-carboxylic acid (6-bromo-2-oxo-2,3-dihydro-1H-benzoimidazol-5-yl)-amide] came in with a pIC50 of 5.93. `Cc1nc2cc(NC(=O)N3C=CC(=O)CC3c3ccc(F)cc3)ccc2s1` (centres unmarked) [Compound 113, 2-(4-Fluoro-phenyl)-4-oxo-3,4-dihydro-2H-pyridine-1-carboxylic acid (2-methyl-benzothiazol-5-yl)-amide] came in with a pIC50 of 5.505.

In turn, `Cc1cc(Cl)c(OCCCO)cc1NC(=O)N1C=CC(=O)C[C@H]1c1ccc(F)cc1` [Compound 114, (S)-2-(4-Fluoro-phenyl)-4-oxo-3,4-dihydro-2H-pyridine-1-carboxylic acid [4-chloro-5-(3-hydroxy-propoxy)-2-methyl-phenyl]-amide] came in with a pIC50 of 7.74.

In turn, `COc1cc(NC(=O)N2C=CC(=O)CC2c2ccc(F)cc2)c(N(C)C)cc1OC` (centres unmarked) [Compound 115, 2-(4-Fluoro-phenyl)-4-oxo-3,4-dihydro-2H-pyridine-1-carboxylic acid (2-dimethylamino-4,5-dimethoxy-phenyl)-amide] displayed a pIC50 of 5.915.

`Cn1ccc2cc(NC(=O)N3C=CC(=O)C[C@H]3c3ccc(F)cc3)ccc21` [Compound 116, (S)-2-(4-Fluoro-phenyl)-4-oxo-3,4-dihydro-2H-pyridine-1-carboxylic acid (1-methyl-1H-indol-5-yl)-amide] returned a pIC50 of 7.405. For the molecule `O=C1C=CN(C(=O)Nc2ccc3ncsc3c2)C(c2ccc(F)cc2)C1` (centres unmarked) [Compound 117, 2-(4-Fluoro-phenyl)-4-oxo-3,4-dihydro-2H-pyridine-1-carboxylic acid benzothiazol-6-ylamide], the pIC50 came out at 6.31. `Cc1cc(Cl)c(CO)cc1NC(=O)N1C=CC(=O)C[C@H]1c1ccc(F)cc1` [Compound 118, (S)-2-(4-Fluoro-phenyl)-4-oxo-3,4-dihydro-2H-pyridine-1-carboxylic acid (4-chloro-5-hydroxymethyl-2-methyl-phenyl)-amide] had a pIC50 of 7.735. To `O=C1C=CN(C(=O)Nc2ccc(OC(F)(F)F)cc2Br)[C@H](c2ccc(F)cc2)C1` [Compound 119] belongs 6.175; to `CN(C)C(=O)COc1cc(NC(=O)N2C=CC(=O)C[C@H]2c2ccc(F)cc2)c(Br)cc1Cl` [Compound 120, (S)-2-(4-Fluoro-phenyl)-4-oxo-3,4-dihydro-2H-pyridine-1-carboxylic acid (2-bromo-4-chloro-5-dimethylcarbamoylmethoxy-phenyl)-amide], 6.95; to `COCCN(C)Cc1cc(NC(=O)N2C=CC(=O)C[C@H]2c2ccc(F)cc2)c(C)cc1Cl` [Compound 121, (S)-2-(4-Fluoro-phenyl)-4-oxo-3,4-dihydro-2H-pyridine-1-carboxylic acid (4-chloro-5-{[(2-methoxy-ethyl)-methyl-amino]-methyl}-2-methyl-phenyl)-amide], 6.43.

For `Cc1cc(Cl)c(CNC(=O)OC(C)(C)C)cc1NC(=O)N1C=CC(=O)C[C@H]1c1ccc(F)cc1` [Compound 122, (2-Chloro-5-{[(S)-2-(4-fluoro-phenyl)-4-oxo-3,4-dihydro-2H-pyridine-1-carbonyl]-amino}-4-methyl-benzyl)-carbamic acid tert-butyl ester], the pIC50 stood at 5.995. As for `CC(=O)NCc1cc(NC(=O)N2C=CC(=O)C[C@H]2c2ccc(F)cc2)c(C)cc1Cl` [Compound 124, (S)-2-(4-Fluoro-phenyl)-4-oxo-3,4-dihydro-2H-pyridine-1-carboxylic acid [5-(acetylamino-methyl)-4-chloro-2-methyl-phenyl]-amide], the pIC50 is listed as 6.98. Molecule `Cc1c(NC(=O)N2C=CC(=O)C[C@H]2c2ccc(F)cc2)ccc2ncccc12` [Compound 125, (S)-2-(4-Fluoro-phenyl)-4-oxo-3,4-dihydro-2H-pyridine-1-carboxylic acid (5-methyl-quinolin-6-yl)-amide] yielded a pIC50 of 7.16. For the molecule `O=C1C=CN(C(=O)Nc2ccccc2)[C@H](c2ccc(F)cc2)C1` [Compound 126, (S)-2-(4-Fluoro-phenyl)-4-oxo-3,4-dihydro-2H-pyridine-1-carboxylic acid phenylamide], the pIC50 amounted to 6.18. As for `Cc1cc(Cl)c(CN(CCO)CCO)cc1NC(=O)N1C=CC(=O)C[C@H]1c1ccc(F)cc1` [Compound 127, (S)-2-(4-Fluoro-phenyl)-4-oxo-3,4-dihydro-2H-pyridine-1-carboxylic acid (5-{[bis(2-hydroxy-ethyl)-amino]-methyl}-4-chloro-2-methyl-phenyl)-amide], the pIC50 is listed as 7.615. As for `CN1C(=O)CCc2cc(Br)c(NC(=O)N3C=CC(=O)C[C@H]3c3ccc(F)cc3)cc21` [Compound 128, (S)-2-(4-Fluoro-phenyl)-4-oxo-3,4-dihydro-2H-pyridine-1-carboxylic acid (6-bromo-1-methyl-2-oxo-1,2,3,4-tetrahydro-quinolin-7-yl)-amide], the pIC50 was 7.595.
